Like-named read-outs stand apart in the source and are kept apart here. One block for each compound: values may come before it.
Key:
mouse gut microbiota = system: mouse gut microbiota; parameters: method as in Lin et al., 2016; conditions: ref Lin et al., 2016; cited from earlier work
[1] = system: human fecal suspensions with gut microbiota; conditions: for Substrate recovered at the initial time point from the fecal suspensions: 0 hr, initial substrate dose 1 µmol; for Substrate amount in human fecal suspension: initial dose 1 µmol, 37°C anaerobic
Experimental: The column was a Zorbax SB‐C18 column (250 mm × 4.6 mm, 5.0 µm). […] Quantification of phenolic acids was carried out by an internal standard method using calibration curves. […] For each analytical run, a standard curve was prepared in the appropriate matrix (methanol, blank serum, urine, or feces) and used to determine the content of phenolic acids in chicory or biological samples. The detection limit for phenolic acids (10‐fold baseline noise) under the conditions used in this study was 1 ng/ml in serum and 5 ng/ml in urine and feces, and values below this concentration were reported as zero. […] Mycophenolic acid was selected as the internal standard.
Fresh feces (2 g) collected from human adults were mixed with 10 ml of brain–heart infusion medium, and the resulting solution was filtered with autoclaved gauze to remove the dregs before use. […] The mixture was fermented at 37°C under anaerobic conditions using the anaerobic chamber. […] All incubations were performed in triplicate. At the same time, the fecal suspension was incubated without phenolic acids as a negative control.

human gut microbiota = system: human gut microbiota; parameters: method as in Gonthier et al., 2006; conditions: ref Gonthier et al., 2006; cited from earlier work
[2] = Fecal excretion/recovery of protocatechuic acid and conjugates after 150 g of chicory; format: in vivo, human
Experimental: (§1) A single-dose pharmacokinetic trial was conducted to evaluate the acute (24 hr) bioavailability of protocatechuic acid from chicory juice. Qualified participants were asked to consume foods low in phytochemicals for three days prior to the chicory juice intervention. Participants were also asked to consume a diet without vegetables, fruits, and plant-based beverages for the day prior to the intervention and the intervention day. The purpose of these dietary restrictions was to reduce any residual dietary phenolic compounds from the body (these compounds are typically cleared from blood, urine, and feces within 48 hr of consumption) and to ensure phenolic compounds present in the blood, urine, and feces samples collected during the intervention were derived from the chicory juice alone. Prior to administering the chicory juice, overnight fasting blood, urine, and feces (first-morning void) were collected at time 0 hr as the baseline. A single dose of chicory juice (150 g of chicory) was then orally ingested by each of the participants under close observation by the researcher in 5 min. No other foods or beverages were provided at this time. The chicory juice was prepared together approximately 10 min prior to this pharmacokinetic trial. One portion of chicory juice was kept to quantify the content of protocatechuic acid. […] Fecal samples from 0-24 hr after chicory juice drinking were collected. […] Mycophenolic acid was selected as the internal standard. The pharmacokinetic parameters of protocatechuic acid in the free, glucuronide, and sulfate conjugates were calculated using DAS 2.1 (BioGuider Co.), with a noncompartmental model: maximum serum concentrations (Cmax); time to achieve maximum serum concentrations (Tmax); the area under the concentration-time curve to 24 hr (AUC0-24); and terminal elimination half-life (T1/2z). The apparent bioavailability of protocatechuic acid together was quantified using AUC0-24 divided by its ingested amount. Urinary and fecal recoveries were calculated using the total content of urinary and fecal protocatechuic acid divided by its ingested amount.

[3] = parameters: method as in Wang, Zou, et al., 2011; conditions: ApoE^‐/‐ mice, single oral gavage 25 mg/kg; ref Wang, Zou, et al., 2011; cited from earlier work
[4] = parameters: method as in Chen et al., (2012); conditions: CF‐1 mice, oral 50 mg/kg; ref Chen et al., (2012); cited from earlier work
[5] = Urinary excretion/recovery of protocatechuic acid and conjugates after 150 g of chicory; format: in vivo, human
Experimental: as §1

[6] = Single-dose pharmacokinetic trial, serum protocatechuic acid and conjugates after 150 g of chicory; format: in vivo, human
Experimental: as §1

Compound: O=c1cc(-c2ccc(O)cc2)oc2cc(O)cc(O)c12 [apigenin]
Catabolism into protocatechuic acid by mouse gut microbiota (mouse gut microbiota): intensively catabolized into protocatechuic acid

Compound: O=C(O)c1cc(O)c(O)c(O)c1 [Gallic acid]
Substrate recovered at the initial time point from the fecal suspensions [1]: 95.8 ± 3.3% | Substrate amount in human fecal suspension ([1]; incubation time 0 h): 0.96 ± 0.03 µmol | Substrate amount in human fecal suspension ([1]; incubation time 6 h): 0.75 ± 0.14 µmol | Substrate amount in human fecal suspension ([1]; incubation time 12 h): 0.60 ± 0.18 µmol | Substrate amount in human fecal suspension ([1]; incubation time 24 h): 0.27 ± 0.23 µmol

Substrate recovered at the initial time point from the fecal suspensions [1]: 91.5% ± 4.7% | Substrate amount in human fecal suspension ([1]; incubation time 0 h): 0.92 ± 0.05 µmol
Compound: O=C(/C=C/c1ccc(O)c(O)c1)O[C@@H](C(=O)O)[C@@H](O)C(=O)O [Caftaric acid]
Generation of protocatechuic acid by human gut microbiota metabolism (human gut microbiota): cannot generate protocatechuic acid

Compound: O=c1c(O)c(-c2ccc(O)c(O)c2)oc2cc(O)cc(O)c12 [quercetin]
Catabolism into protocatechuic acid by mouse gut microbiota (mouse gut microbiota): intensively catabolized into protocatechuic acid

Compound: O=C(O)c1ccc(O)c(O)c1 [PCA‐F, 3,4‐dihydroxybenzoic acid]
Recovery in feces ([2]; 16 healthy adults, 150 g of chicory oral, 0-24 hr feces): 12.79 % of the ingested dose | Mean content in feces ([2]; 16 healthy adults, feces 0-24 hr after 150 g of chicory): 8.00 ± 3.17 µmol | dose excreted ([2]; human, 150 g of chicory (as juice), 16 healthy adults, 150 g of chicory oral, 0-24 hr feces): 3.25% | Recovery in feces ([2]; men, n = 8, 150 g of chicory): 2.52 ± 0.87 % of the ingested dose | Recovery in feces ([2]; women, n = 8, 150 g of chicory): 3.97 ± 1.38 % of the ingested dose | Maximal level in plasma [3]: approximately 4.3 µM | Peak plasma level [4]: 73.6 µM | Formation of protocatechuic acid from gallic, caffeic, 5‐caffeoylquinic, caftaric or chicoric acid in human fecal suspensions ([1]; 1 µmol substrate, up to 24 hr, listed as protocatechuic acid): could not be detected | Recovery in urine ([5]; 16 healthy adults, 150 g of chicory oral, 0-24 hr urine): 12.17 % of the ingested dose | Time at which urinary excretion reached the plateau ([5]; 16 healthy adults, after chicory juice consumption): 6 h | dose excreted ([5]; human, 150 g of chicory (as juice), 16 healthy adults, 150 g of chicory oral, 0-24 hr urine): 5.02% | Recovery in urine ([5]; men, n = 8, 150 g of chicory): 5.66 ± 3.87 % of the ingested dose | Recovery in urine ([5]; women, n = 8, 150 g of chicory): 4.38 ± 2.28 % of the ingested dose | T1/2z, terminal elimination half‐life ([6]; 16 healthy adults, 150 g of chicory oral, serum): 1.72 ± 0.35 h | Recovery in blood circulation ([6]; 16 healthy adults, 150 g of chicory oral, AUC0‐24 divided by ingested amount): 15.60% ± 4.21% | half-life ([6]; both sexes, human, serum, 16 healthy adults, 150 g of chicory oral, read-out: T1/2z in serum (converted)): 1.72 ± 0.35 h | AUC(0-t) ([6]; both sexes, human, 16 healthy adults, 150 g of chicory oral, serum, read-out: AUC0−24, area under the concentration–time curve to 24 hr): 16.9 ± 3 µM·h | Cmax ([6]; both sexes, human, 16 healthy adults, 150 g of chicory oral, serum, read-out: Maximum (peak) serum concentration, Cmax): 3.27 µM | Tmax ([6]; both sexes, human, 16 healthy adults, 150 g of chicory oral, serum, read-out: Time of peak serum concentration): 1 h | Ingested protocatechuic acid recovered in the blood circulation, urine, and feces together ([6]; both, human, in vivo, po): 48.74% | Recovery in blood circulation ([6]; both, human, in vivo, po): about 23.79 % of the ingested dose | AUC(0-t) ([6]; female, human, oral, women, n = 8, 150 g of chicory, serum, read-out: AUC0−24): 17.2 ± 1.81 µM·h | Cmax ([6]; female, human, oral, women, n = 8, 150 g of chicory, serum, read-out: Cmax): 3.45 µM | half-life ([6]; female, human, oral, women, n = 8, 150 g of chicory, serum, read-out: T1/2z (converted)): 1.81 ± 0.48 h | Tmax ([6]; female, human, oral, women, n = 8, 150 g of chicory, serum, read-out: Tmax): 1 h | AUC(0-t) ([6]; male, human, oral, men, n = 8, 150 g of chicory, serum, read-out: AUC0−24): 16.6 ± 1.63 µM·h | Cmax ([6]; male, human, oral, men, n = 8, 150 g of chicory, serum, read-out: Cmax): 3.1 µM | half-life ([6]; male, human, oral, men, n = 8, 150 g of chicory, serum, read-out: T1/2z (converted)): 1.63 ± 0.04 h | Tmax ([6]; male, human, oral, men, n = 8, 150 g of chicory, serum, read-out: Tmax): 1 h | Recovery in blood circulation ([6]; men, n = 8, 150 g of chicory): 17.18 ± 4.05 % of the ingested dose | Recovery in blood circulation ([6]; women, n = 8, 150 g of chicory): 14.01 ± 3.74 % of the ingested dose

Compound: O=C(O)/C=C/c1ccc(O)c(O)c1 [Caffeic acid]
Substrate recovered at the initial time point from the fecal suspensions [1]: 86.0 ± 3.0% | Substrate amount in human fecal suspension ([1]; incubation time 0 h): 0.86 ± 0.03 µmol | Substrate amount in human fecal suspension ([1]; incubation time 6 h): 0.16 ± 0.11 µmol

Substrate recovered at the initial time point from the fecal suspensions [1]: 79.3 ± 5.7% | Substrate amount in human fecal suspension ([1]; incubation time 0 h): 0.79 ± 0.06 µmol
Compound: O=C(/C=C/c1ccc(O)c(O)c1)O[C@@H]1C[C@@](O)(C(=O)O)C[C@@H](O)[C@@H]1O [5‐caffeoylquinic acid]

From PMC6766590, “Protocatechuic acid from chicory is bioavailable and undergoes partial glucuronidation and sulfation in healthy humans” (Food Science & Nutrition, 2019)
